{"source": "patent US5861375A", "about": "“Antiprotozoal cyclic tetrapeptides” (Merck & Co., Inc., priority 1997, dated 1999)", "tested_on": "Plasmodium falciparum", "assay": "Radioactive antimalarial assay (parasite specific uptake of radiolabel)", "type": "cell-based", "details": "P. falciparum", "method": "Compound of formula Ia was evaluated against Eimeria tenella, Toxoplasma gondii, and Plasmodium falciparum according to methods reported in the literature.\nThe antimalarial activity was determined in a radioactive assay following the general protocol described in Desjardins et al, \"Quantitative Assessment of Antimalarial Activity In Vitro by a Semiautomated Microdilution Technique\" Antimicrobial Agents and Chemotherapy. 1979, 16:710-718."}
{"smiles": "CCC(=O)CCCCC[C@@H]1NC(=O)[C@H]2CCCCN2C(=O)[C@H]([C@@H](C)CC)NC(=O)[C@H](Cc2cn(OC)c3ccccc23)NC1=O", "note": "[Ia]", "values": [{"measurement": "IC50 (the concentration of drug which inhibits the parasite specific uptake of radiolabel by 50%)", "result": 0.054, "unit": "µg/mL"}]}
